# Source: ChEMBL document CHEMBL1134093, “Amidino benzimidazole inhibitors of bacterial two-component systems” (Bioorg Med Chem Lett, 2001)
# Assays:
# Enterococcus faecalis = test: Inhibition of growth of Enterococcus faecalis OC 3041.; assay type: functional
# Staphylococcus aureus [1] = test: Compound was evaluated for inhibition of growth of Staphylococcus aureus ATCC 29213; assay type: functional
# Staphylococcus aureus [2] = test: Compound was evaluated for inhibition of growth of methicillin resistant Staphylococcus aureus MRSA OC 2089; assay type: functional
# Enterococcus faecium = test: Inhibition of growth of Vancomycin resistant Enterococcus faecium (VRE) OC 3312.
# Staphylococcus aureus [3] = test: Inhibition of growth of Staphylococcus aureus ATCC 29213.; assay type: functional
# Staphylococcus aureus [4] = test: Inhibition of growth of methicillin resistant Staphylococcus aureus MRSA OC 2089.; assay type: functional
# [5] = molecular target: T1, KinA/Spo0F (sporulation kinase A/sporulation initiation phosphotransferase F) (Bacillus subtilis (strain 168), UniProt P06628+P16497); test: Inhibition of KinA/Sp0F system two component (TCS) from Bacillus subtilis.; assay type: protein assay
# T1 sequence (P06628 whole entry): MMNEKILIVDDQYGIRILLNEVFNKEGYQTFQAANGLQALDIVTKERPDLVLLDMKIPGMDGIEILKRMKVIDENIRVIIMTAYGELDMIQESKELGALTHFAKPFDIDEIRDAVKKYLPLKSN
# T1 sequence (P16497 whole entry): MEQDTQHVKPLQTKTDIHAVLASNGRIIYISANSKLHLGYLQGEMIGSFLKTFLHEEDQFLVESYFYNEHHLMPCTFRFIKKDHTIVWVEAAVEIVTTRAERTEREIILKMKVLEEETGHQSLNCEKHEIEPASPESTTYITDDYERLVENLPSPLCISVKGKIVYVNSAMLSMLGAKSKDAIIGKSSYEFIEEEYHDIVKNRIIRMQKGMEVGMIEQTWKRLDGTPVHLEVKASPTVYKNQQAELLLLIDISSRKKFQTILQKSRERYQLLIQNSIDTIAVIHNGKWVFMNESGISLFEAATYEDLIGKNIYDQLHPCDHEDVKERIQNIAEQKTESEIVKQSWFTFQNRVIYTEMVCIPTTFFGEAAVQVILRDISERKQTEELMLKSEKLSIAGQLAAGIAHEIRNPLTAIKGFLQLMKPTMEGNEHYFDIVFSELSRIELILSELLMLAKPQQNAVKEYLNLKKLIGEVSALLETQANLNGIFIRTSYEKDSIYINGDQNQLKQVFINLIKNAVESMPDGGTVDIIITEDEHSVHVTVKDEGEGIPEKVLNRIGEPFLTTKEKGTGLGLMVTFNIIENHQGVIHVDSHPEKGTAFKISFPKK
# [6] = molecular target: T1, KinA/Spo0F (sporulation kinase A/sporulation initiation phosphotransferase F); test: Inhibition of KinA/Sp0F system two component system (TCS) from Bacillus subtilis; assay type: protein assay
Structure (SMILES),MIC (Enterococcus faecalis) [µg/mL],MIC (Staphylococcus aureus [1]) [µg/mL],MIC (Staphylococcus aureus [2]) [µg/mL],MIC (Enterococcus faecium) [µg/mL],MIC (Staphylococcus aureus [3]) [µg/mL],MIC (Staphylococcus aureus [4]) [µg/mL],IC50 [5] [µM],IC50 [6] [µM]
N=C(N)c1ccc2nc(-c3ccc(Oc4ccccc4)cc3)[nH]c2c1,16,8,16,16,,,,
CC(C)(C)c1ccc(O)c(-c2nc3cc(C(=N)N)ccc3[nH]2)c1,16,,,16,8,8,,
CC(C)(N)CNC(=O)c1ccc2[nH]c(-c3cc(C(C)(C)C)cc(C(C)(C)C)c3O)nc2c1,,,,,,,10,
N=C(N)c1ccc2oc(-c3ccc(Oc4ccccc4)cc3)nc2c1,,,,,,,138,
N=C(N)c1ccc2[nH]c(-c3ccccc3)nc2c1,,,,,,,> 500,
N=C(N)c1ccc2nc(-c3ccc(-c4ccccc4)cc3)[nH]c2c1,,,,,,,88,
CC(C)(C)c1cc(-c2nc3cc(C4=NCCN4)ccc3[nH]2)c(O)c(C(C)(C)C)c1,1,,,1,1,1,10,
N=C(N)c1ccc2[nH]c(-c3ccc(N(c4ccccc4)c4ccccc4)cc3)nc2c1,4,,,4,4,16,17,
CC(C)(C)c1cc(-c2nc3cc(C(=N)N)ccc3o2)c(O)c(C(C)(C)C)c1,1,,,1,1,1,14,
CC(C)(C)c1cc(-c2nc3ccc(C(=N)N)cc3o2)c(O)c(C(C)(C)C)c1,2,,,1,2,2,15.4,
CC(C)(C)c1cc(-c2nc3cc(C(=N)N)ccc3[nH]2)cc(C(C)(C)C)c1,4,,,4,2,4,25,
Cn1c(-c2ccc(Oc3ccccc3)cc2)nc2cc(C(=N)N)ccc21,> 64,,,32,16,32,44,
N=C(N)c1ccc2cc(-c3ccc(Oc4ccccc4)cc3)[nH]c2c1,4,,,4,4,4,7.7,
CC(C)(C)c1cccc(-c2nc3cc(C(=N)N)ccc3[nH]2)c1O,2,,,2,1,1,6,
CC(C)(C)c1cc(-c2nc3cc(C(=N)N)ccc3[nH]2)c(O)c(C(C)(C)C)c1,2,,,1,1,2,12,
CC(C)(C)c1cccc(-c2nc3cc(C(=N)N)ccc3[nH]2)c1,,,,,,,163,
N=C(N)c1ccc2nc(-c3ccc(Oc4ccccc4)cc3)oc2c1,,,,,,,49,
N=C(N)c1ccc(Oc2ccc(-c3cc4ccc(C(=N)N)cc4[nH]3)cc2)cc1,1,,,0.5,1,0.5,,31
COc1c(-c2nc3cc(C(=N)N)ccc3[nH]2)cc(C(C)(C)C)cc1C(C)(C)C,8,,,4,4,4,,
COC(=O)c1ccc2[nH]c(-c3cc(C(C)(C)C)cc(C(C)(C)C)c3O)nc2c1,,,,,,,380,
Cc1onc(-c2ccccc2)c1C(=O)N[C@@H]1C(=O)N2[C@@H]1SC(C)(C)[C@@H]2C(=O)O [OXACILLIN],16,,,> 64,0.25,> 64,,
